{"source": "patent US20180318196A1", "about": "“COMPOSITION FOR PROTECTING THE SKIN AGAINST THE EFFECTS OF POLLUTION AND USE THEREOF” (LUBRIZOL ADVANCED MATERIALS, INC., priority 2015, published 2018)", "tested_on": "Normal Human Epidermal Keratinocytes from adult (NHEK)", "experiment": "Protection from damage induced by Urban Dust, MTT cell viability assay", "format": "cell-based", "protocol": "The capacity of protecting skin cell cultures from damage induced by Urban Dust (UD) is evaluated. The UD used is particulate matter (PMs, one of the major air pollutants with effects on the skin) collected in an urban area, Washington DC in 1976 and 1977, with an average particle size of 10.5 μm that contain polycyclic aromatic hydrocarbons (PAHs), polychlorinated biphenyl (PCBs), nitro-PAHs, chlorinated pesticides, dioxins and heavy metals: Damage is generated by the addition of UD to the culture medium and the protection effect from damage of the tested compounds is measured by a cell viability assay.\nThe viability is evaluated by MTT (3-[4,5-dimethylthiazol-2-yl]-2,5 diphenyl tetrazolium bromide), an absorbance-based cell viability method. Live cells present mitochondrial dehydrogenase activity that reduces the dye MTT to an insoluble blue colored product easily detected by absorbance, reflecting viable cells. […]\nThen, cellular viability is evaluated. […] Then, plates are shaken for 5 minutes at room temperature protected from light and absorbance read at 570 nm with wavelength correction at 630 nm, using a Microplate Absorbance Reader (Clariostar®,BMG LabTech).\nThe percentage of cell viability for each condition is calculated with respect to control without pollutants (cells treated with medium alone and not treated with UD). […]", "note": "Like-named read-outs stand apart in the source and are kept apart here."}
{"molecule": "COc1cc2c(cc1O)CCC(C)(C)O2", "note": "[LPCH, 7-methoxy-2,2-dimethylchroman-6-ol]", "values": [{"measurement": "viability at 50 µg/mL", "setting": "read-out: Relative Cell Viability with Respect To Control without pollutants (%) (MEAN ± SEM), 50 μg/mL LPCH + 50 μg/mL UD", "value": "85.8 ± 3.68", "unit": "%"}, {"measurement": "viability at 50 µg/mL", "setting": "read-out: Relative Cell Viability with Respect To Control without pollutants (%) (MEAN ± SEM), 50 μg/mL LPCH + 100 μg/mL UD", "value": "79 ± 3.21", "unit": "%"}]}
